Structures can show the parent of a compound that is named as a salt.
What was measured:
[1] = tested on: MSCs grown on silk scaffolds; experiment: Rho/Rock pathway and stress fiber disruption in MSCs grown on silk scaffolds; format: cell-based; conditions: treatment for 24 h
Text: FIG. 6A-6C. Disruption of Rho/Rock Pathway signaling and stress fiber formation are required for tendon lineage determination. (6A) Immunocytochemistry of P-actin in MSCs grown either with no treatment or treated with Latrunculin A, Y-27632 and Blebbistatin for 7 days (blue=DAPI, green=P-actin). *P<0.05 for all treatments. (6B) mRNA expression and protein expression of Sex and mRNA expression of (6C) Coll al and Nfatc4 Nst in MSCs grown on silk scaffolds following treatment with Latrunculin A (LatA), Y-27632 (Y) and Blebbistatin (Bleb) for 24 h. Data represent three independent experiments per assay.
4. Disruption of stress fiber formation by blocking Rho/Rock Pathway signaling abolished silk scaffold induced MSCs tendon lineage differentiation. To determine the role of stress fibers in mediating silk fiber-induced MSC tenogenic differentiation, the impact of cell signaling on the regulation of stress fiber formation was examined.
Compared to untreated cells, cells that were exposed to the above treatment conditions lost their elongated phenotype (FIG. 6A). […] Therefore, the expression of Nfatc4 and Collal following treatment with Latrunculin A, Y-27632, and blebbistatin was also examined.

[2] = tested on: MSCs grown on silk scaffolds; experiment: effect of cytochalasin D on silk-fiber induced MSC teno-differentiation; format: cell-based
Text: FIG. 5A-5I. Cytochalasin D disrupted actin cytoskeletal arrangement in cells attached to scaffold fibers and abolished the elongated cell body [(5A) vs (5B)] and associated nuclear shape change [(5C) vs (5D)]. […] (5G) Relative mRNA and (5H) western blot of Sex and Tnmd expression with (i) relative mRNA expression of the housekeeping genes Hrptl and Pgkl as an internal control. Data represent at least three independent experiments per assay. *P<0.05 compared to MSCs seeded on a scaffold without cytochalasin D. Scale bar=25 μm.
3. Actin polymerization is required for scaffold induced stem cell elongation and expression of tenogenesis markers Sex and Tnmd. To determine the role of cytoskeletal organization in the differentiation of MSCs into tenocytes when MSCs are grown on silk, the effect of cytochalasin D, which inhibits actin polymerization by capping the barbed ends of F-actin polymers was examined on silk-fiber induced MSC teno-differentiation. Differences in cell shape and cell nuclei were quantified by measuring the lengths of the cells that were growing in parallel with the fibers and were compared to the maximal widths of the cells, which were measured perpendicular to the fibers. […] Significant differences were found when quantifying the cytoplasmic (P<0.05) and nuclear (P<0.05) ratios (Fig. SE).
To determine whether actin polymerization in elongated cells is required for tenogenic differentiation, the effect of cytochalasin D was examined on tenogenic marker gene and protein expression in MSCs that were grown on silk scaffolds for 7 days. […] To determine whether the loss of Sex and Tnmd expression was due to specific effects produced by cytochalasin D on actin polymerization and cell morphology, rather than due to general toxicity related to gene expression, the expression levels of two housekeeping genes, Hypoxanthine-guanine phosphoribosyltransferase
1 (Hprtl) and phosphoglycerate kinase 1 (Pgkl), were analyzed.

[3] = MSCs grown on silk scaffolds for 7 days, compared to untreated controls
[4] = check for general toxicity related to gene expression
[5] = compared to untreated MSCs, P<0.05

Structure (SMILES) | expression level of Coll al [1] | expression level of Nfatc4 [1] | expression level of SCX proteins [1] | expression level of Sex mRNAs [1] | Sex expression (immunocytochemistry, real-time PCR, western blot) [2, 3] | Tnmd expression (immunocytochemistry, real-time PCR, western blot) [2, 3] | elongated phenotype of the cells [2, 3] | expression level of housekeeping gene Hprtl [2, 4] | expression level of housekeeping gene Pgkl [2, 4] | length-to-width ratio of cytoplasm [2, 5] | length-to-width ratio of nuclei [2, 5]
C/C1=C/C(=O)O[C@@H]2C[C@@H](CC[C@H](C)/C=C\C=C\CC1)O[C@@](O)([C@@H]1CSC(=O)N1)C2 [Latrunculin A] | significantly decreased | significantly decreased | significantly decreased | significantly decreased |  |  |  |  |  |  | 
C[C@@H](N)[C@H]1CC[C@H](C(=O)Nc2ccncc2)CC1 [Y-27632, Y-27632 dihydrochloride] | significantly decreased | significantly decreased | significantly decreased | significantly decreased |  |  |  |  |  |  | 
Cc1ccc2c(c1)C(=O)C1(O)CCN(c3ccccc3)C1=N2 (stereo not shown) [blebbistatin] | significantly decreased | significantly decreased | significantly decreased | significantly decreased |  |  |  |  |  |  | 
C=C1[C@@H](C)[C@H]2[C@H](Cc3ccccc3)NC(=O)[C@]23[C@H](OC(C)=O)/C=C/[C@@](C)(O)C(=O)[C@@H](C)C/C=C/[C@H]3[C@@H]1O [cytochalasin D] |  |  |  |  | loss | loss | abolished | remained unchanged | remained unchanged | smaller | smaller
